# Assays:
# Assay in all cases: selective drug sensitivity score (sDSS, relative to normal bone marrow) (sDSS (score)); higher = more potent and effective on the cell line relative to normal bone marrow cells
# Settings in all cases: 72 h
# HAL-01 = tested on: HAL-01
# KARPAS-45 = tested on: KARPAS-45
# KASUMI-9 = tested on: KASUMI-9
# 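Further: ALL cell lines in 384-well plates, five doses spanning 10,000-fold, each plate scaled between vehicle and 100 µmol/L benzalkonium chloride controls, sDSS an adapted area-under-curve metric.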
Compound,selective drug sensitivity score (HAL-01),selective drug sensitivity score (KARPAS-45),selective drug sensitivity score (KASUMI-9)
CNC(=O)c1ccc(N2C(=S)N(c3cnc(C#N)c(C(F)(F)F)c3)C(=O)C23CCC3)cc1F [Apalutamide] (top concentration 10000 nM),0,0,0
N.N.[Cl][Pt][Cl] [Cisplatin] (top concentration 100000 nM),12,5.84,12.3
Cc1nc(=O)c2cc(CN(C)c3ccc(C(=O)N[C@@H](CCC(=O)O)C(=O)O)s3)ccc2[nH]1 [Raltitrexed] (top concentration 1000 nM),21.2,9.52,15.2
COc1cc2ncnc(Nc3ccc(F)c(Cl)c3)c2cc1OCCCN1CCOCC1 [Gefitinib] (top concentration 10000 nM),-0.14,3.36,0.16
N#CC1(c2ccc(NC(=O)c3cccnc3NCc3ccncc3)cc2)CCCC1 [Apatinib] (top concentration 10000 nM),0,0,0
O=S(=O)(c1cccc2c(O)nccc12)N1CCCNCC1 [Hydroxyfasudil] (top concentration 19000 nM),1.38,0.48,-0.12
O=C(Nc1cc(Cl)cc2c1[nH]c1cnccc12)c1cccnc1 [PS-1145] (top concentration 25000 nM),2.14,0.34,0.44
Cc1c2oc3c(C)ccc(C(=O)N[C@@H]4C(=O)N[C@H](C(C)C)C(=O)N5CCC[C@H]5C(=O)N(C)CC(=O)N(C)[C@@H](C(C)C)C(=O)O[C@@H]4C)c3nc-2c(C(=O)N[C@@H]2C(=O)N[C@H](C(C)C)C(=O)N3CCC[C@H]3C(=O)N(C)CC(=O)N(C)[C@@H](C(C)C)C(=O)O[C@@H]2C)c(N)c1=O [Dactinomycin] (top concentration 1000 nM),1.04,8.44,19.4
O=c1ncn2nc(Sc3ccc(F)cc3F)ccc2c1-c1c(Cl)cccc1Cl [Neflamapimod] (top concentration 10000 nM),2.5,0.1,3.1
CC(C)N(CCCNC(=O)Nc1ccc(C(C)(C)C)cc1)C[C@H]1O[C@@H](n2cc(Br)c3c(N)ncnc32)[C@H](O)[C@@H]1O [SGC0946] (top concentration 10000 nM),0.68,3.98,0.28
CCCCCCCCc1ccc(CCC(N)(CO)CO)cc1 [Fingolimod] (top concentration 10000 nM),1.88,-0.02,0.08
C=CC(=O)Nc1cccc(Oc2nc(Nc3ccc(N4CCN(C)CC4)cc3)nc3ccsc23)c1 [Olmutinib] (top concentration 1000 nM),5.78,0.28,1.68
CCCCCCCCCCCCCCCCCCOP(=O)([O-])OC1CC[N+](C)(C)CC1 [Perifosine] (top concentration 2500 nM),-0.26,-0.26,-0.36
Cc1nc2cccc(N)c2c(=O)n1C1CCC(=O)NC1=O (stereo not given) [Avadomide (CC122)] (top concentration 10000 nM),1.6,0,10.7
C=CC(=O)Nc1cc(Nc2nccc(-c3cn(C)c4ccccc34)n2)c(OC)cc1N(C)CCN(C)C [Osimertinib] (top concentration 2500 nM),-0.42,-1.92,3.88
O=C(NCc1ccncc1)C12CC3CC(C1)CC(c1ccc(Cl)cc1)(C3)C2 (top concentration 50000 nM),4.28,3.28,4.28
O=C(O)CCCCC(CCSCc1ccccc1)SCc1ccccc1 (stereo not given) [Devimistat (CPI-613)] (top concentration 10000 nM),0,0,0
CCCCOc1nc(N)c2c(n1)N(Cc1cccc(CN3CCCC3)c1)CC(=O)N2 [Vesatolimod] (top concentration 10000 nM),-3.52,-3.52,-2.92
CC(C)C[C@H](NC(=O)[C@@H](COC(C)(C)C)NC(=O)[C@H](Cc1ccc(O)cc1)NC(=O)[C@H](CO)NC(=O)[C@H](Cc1c[nH]c2ccccc12)NC(=O)[C@H](Cc1cnc[nH]1)NC(=O)[C@@H]1CCC(=O)N1)C(=O)N[C@@H](CCCNC(=N)N)C(=O)N1CCC[C@H]1C(=O)NNC(N)=O [Goserelin] (top concentration 10000 nM),-0.06,-0.06,-0.06
CC1(C)CCC(CN2CCN(c3ccc(C(=O)NS(=O)(=O)c4ccc(NCC5CCOCC5)c([N+](=O)[O-])c4)c(Oc4cnc5[nH]ccc5c4)c3)CC2)=C(c2ccc(Cl)cc2)C1 [Venetoclax] (top concentration 1000 nM),20.4,9.5,25.4

Compound,selective drug sensitivity score (HAL-01),selective drug sensitivity score (KARPAS-45),selective drug sensitivity score (KASUMI-9)
CC[C@@H]1C(=O)OC[C@@H]1Cc1cncn1C [Pilocarpine] (top concentration 40000 nM),-1.56,-1.56,-1.56
O=C(O)CC1CC(c2ccccc2)=NO1 (stereo not given) [VGX-1027] (top concentration 10000 nM),-0.04,-0.04,-0.04
CCOc1ccn(-c2ccc(F)cc2)c(=O)c1C(=O)Nc1ccc(Oc2ccnc(N)c2Cl)c(F)c1 (top concentration 2500 nM),0.1,2.2,0
O=C1CCC(N2C(=O)c3ccccc3C2=O)C(=O)N1 (stereo not given) [Thalidomide] (top concentration 10000 nM),0.36,-0.14,-0.14
CCS(=O)(=O)N1CC(CC#N)(n2cc(-c3ncnc4[nH]ccc34)cn2)C1 [Baricitinib] (top concentration 2500 nM),-1.94,-1.94,-1.94
Cc1cc(Nc2nc(N[C@@H](C)c3ncc(F)cn3)ncc2Cl)[nH]n1 [AZD1480] (top concentration 1000 nM),-0.98,0.32,-0.68
CCCCNc1ncc(C(=O)NCc2ccc(-n3ccnc3)cc2)c(NC2CCC(O)CC2)n1 (stereo not given) [UNC2881] (top concentration 2500 nM),0.3,0.5,0
CCN1CCN(c2ccc(Nc3cc(N(C)C(=O)Nc4c(Cl)c(OC)cc(OC)c4Cl)ncn3)cc2)CC1 [Infigratinib] (top concentration 1000 nM),0,0,0
Cc1ccc(-c2cc(C(F)(F)F)nn2-c2ccc(S(N)(=O)=O)cc2)cc1 [Celecoxib] (top concentration 10000 nM),0.04,0.34,-0.06
C=CC(=O)Nc1cccc(Nc2nc(Nc3ccc(N4CCN(C(C)=O)CC4)cc3OC)ncc2C(F)(F)F)c1 [Rociletinib] (top concentration 10000 nM),0.14,3.14,5.14
C[C@@H]1CN(C(=O)c2ccc(NC(=O)c3cc(O[C@H](C)c4c(Cl)ccc(F)c4Cl)c(N)nn3)cc2)C[C@H](C)N1 [Ensartinib] (top concentration 1000 nM),-2.84,2.36,0.76
COc1cc2c(Nc3ccc(Cl)c(Cl)c3F)ncnc2cc1OC[C@@H]1C[C@@H]2CN(C)C[C@@H]2C1 [Tesevatinib] (top concentration 1000 nM),2.44,0.74,0.74
Cc1ccc(-n2nc(C(C)(C)C)cc2NC(=O)Nc2ccc(OCCN3CCOCC3)c3ccccc23)cc1 [Doramapimod] (top concentration 10000 nM),-0.24,-0.24,4.56
C[C@@H]1CCN(C(=O)CC#N)C[C@@H]1N(C)c1ncnc2[nH]ccc12 [Tofacitinib] (top concentration 5000 nM),-7.86,-7.86,-7.86
COc1cc(C(=O)O)ccc1NC(=O)[C@@H]1N[C@@H](CC(C)(C)C)[C@](C#N)(c2ccc(Cl)cc2F)[C@H]1c1cccc(Cl)c1F [Idasanutlin] (top concentration 10000 nM),19.1,-8.34,23
Clc1ccc(C(c2ccccc2Cl)C(Cl)Cl)cc1 (stereo not given) [Mitotane] (top concentration 10000 nM),0.62,0.02,-0.08
CCS(=O)(=O)Nc1ccc(Oc2ccc(F)cc2F)c(-c2cn(C)c(=O)c3[nH]ccc23)c1 [Mivebresib] (top concentration 10000 nM),1.1,14,17.4
CC(=O)O[C@@]12CO[C@@H]1C[C@H](O)[C@@]1(C)C(=O)[C@H](O)C3=C(C)[C@@H](OC(=O)[C@H](O)[C@@H](NC(=O)OC(C)(C)C)c4ccccc4)C[C@@](O)([C@@H](OC(=O)c4ccccc4)[C@H]21)C3(C)C [Docetaxel] (top concentration 1000 nM),4.9,17.1,21
C[C@H]1C[C@@H](n2c(Nc3ccc(OC(F)(F)F)cc3)nc3cc(CCC(=O)O)ccc32)CC(C)(C)C1 (top concentration 10000 nM),1.16,2.76,0.66
CC(=O)O[C@H]1C(=O)[C@@]2(C)[C@H]([C@H](OC(=O)c3ccccc3)[C@]3(O)C[C@H](OC(=O)[C@H](O)[C@@H](NC(=O)c4ccccc4)c4ccccc4)C(C)=C1C3(C)C)[C@]1(OC(C)=O)CO[C@@H]1C[C@@H]2O [Paclitaxel] (top concentration 1000 nM),0.74,18.3,19.6

# Source: the supplement of paper PMC8967900
